Test results reported in ChEMBL document CHEMBL1201862, “PubChem BioAssay data set” (2004).
Activity calls are given as the source filed them.

Assays:
[1] = NIH-3T3 fibroblast cytotoxicity, dose response, cytotoxicity control, cell-based, fluorescence, Alamar Blue, secondary assay (AID 2327); format: functional;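 also: NIH-3T3 mouse fibroblasts cultured with fluconazole at 8 µg/mL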
[2] = C. albicans growth with fluconazole, confirmation, fluorescence, retest (AID 2467); format: functional, cell-based
[3] = cytotoxicity in HPDE-C7 cells, cell-based, fluorescence, HTS (AID 430); format: functional; conditions: Homo sapiens
[4] = cytotoxicity in KRAS-transformed pancreatic duct cells, primary screen, cell-based, fluorescence, HTS (AID 431); format: functional; conditions: Homo sapiens;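 also: cell line used: HPDE-C7K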
[5] = target: T1, Serine/threonine-protein phosphatase (Candida dubliniensis (strain CD36 / CBS 7987 / NCPF 3949 / NRRLY-17841) (Yeast), UniProt B9W6M3); experiment: calcineurin pathway inhibitors in yeast reporter, dose response, S. cerevisiae, CDRE-lacZ, luminescence, secondary (AID 2388); format: functional, cell-based;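 also: yeast reporter cells carrying a calcineurin-responsive lacZ construct stimulated with calcium chloride; luminescent beta-galactosidase reporter signal in whole cells rather than isolated phosphatase activity; potency for inhibition where a drop in reporter signal means calcineurin blockade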
T1 sequence (B9W6M3 whole entry): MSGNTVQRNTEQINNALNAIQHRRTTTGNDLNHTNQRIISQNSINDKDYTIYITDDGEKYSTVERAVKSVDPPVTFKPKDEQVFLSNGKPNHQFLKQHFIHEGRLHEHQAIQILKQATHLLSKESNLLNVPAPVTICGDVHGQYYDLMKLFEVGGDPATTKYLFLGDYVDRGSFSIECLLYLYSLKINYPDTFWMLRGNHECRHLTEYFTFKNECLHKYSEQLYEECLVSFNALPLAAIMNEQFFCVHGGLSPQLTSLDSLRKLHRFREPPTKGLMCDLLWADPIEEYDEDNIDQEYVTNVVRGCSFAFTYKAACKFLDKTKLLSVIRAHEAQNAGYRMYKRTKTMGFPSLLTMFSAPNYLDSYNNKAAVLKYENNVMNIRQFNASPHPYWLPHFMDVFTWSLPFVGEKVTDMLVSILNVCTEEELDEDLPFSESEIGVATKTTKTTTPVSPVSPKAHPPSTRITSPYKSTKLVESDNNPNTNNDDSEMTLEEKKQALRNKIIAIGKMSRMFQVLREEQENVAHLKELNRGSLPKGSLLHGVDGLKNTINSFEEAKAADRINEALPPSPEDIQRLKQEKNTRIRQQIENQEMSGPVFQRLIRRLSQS

[6] = target: T2, Short transient receptor potential channel 4 (Mus musculus, UniProt Q9QUQ5); experiment: mouse TRPC4 channel activators, dose response, cell-based, HEK293 TRPC4/mu-opioid, Fluo-4 calcium (AID 434937); format: functional
T2 sequence (Q9QUQ5 whole entry): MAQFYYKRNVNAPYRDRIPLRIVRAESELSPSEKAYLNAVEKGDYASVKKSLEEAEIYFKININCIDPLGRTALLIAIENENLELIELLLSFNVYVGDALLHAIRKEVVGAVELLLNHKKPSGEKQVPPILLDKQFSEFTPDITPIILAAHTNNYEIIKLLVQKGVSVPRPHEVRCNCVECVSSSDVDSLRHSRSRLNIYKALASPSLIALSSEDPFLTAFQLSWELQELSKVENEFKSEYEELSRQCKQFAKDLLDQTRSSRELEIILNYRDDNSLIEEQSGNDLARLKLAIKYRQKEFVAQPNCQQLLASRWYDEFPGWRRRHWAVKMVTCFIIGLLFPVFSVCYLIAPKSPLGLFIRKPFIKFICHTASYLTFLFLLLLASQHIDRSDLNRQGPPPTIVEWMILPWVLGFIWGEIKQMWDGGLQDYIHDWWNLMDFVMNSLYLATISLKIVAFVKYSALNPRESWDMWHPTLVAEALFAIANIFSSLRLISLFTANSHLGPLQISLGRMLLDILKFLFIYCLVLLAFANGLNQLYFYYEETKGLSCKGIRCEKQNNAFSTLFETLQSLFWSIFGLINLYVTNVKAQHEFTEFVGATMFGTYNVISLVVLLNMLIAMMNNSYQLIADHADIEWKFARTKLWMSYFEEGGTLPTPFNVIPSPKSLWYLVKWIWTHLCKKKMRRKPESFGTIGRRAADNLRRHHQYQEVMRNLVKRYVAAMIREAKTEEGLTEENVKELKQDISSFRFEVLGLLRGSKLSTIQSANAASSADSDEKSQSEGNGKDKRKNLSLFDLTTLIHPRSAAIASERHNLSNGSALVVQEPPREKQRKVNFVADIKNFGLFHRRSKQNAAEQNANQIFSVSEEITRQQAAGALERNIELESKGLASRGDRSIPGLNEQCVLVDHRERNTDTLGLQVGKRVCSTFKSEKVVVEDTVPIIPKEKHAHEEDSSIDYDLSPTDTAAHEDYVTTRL

[7] = cytotoxicity in HEK-293T cells, dose response, cytotoxicity control for TCR NF-kB inhibitor project, luminescence, T-cell screen hits (AID 489026); format: functional, cell-based;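 also: cells exposed to compound about 14 hours before the viability readout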
[8] = target: ATP-dependent molecular chaperone HSP82 (Candida albicans (strain WO-1) (Yeast), UniProt C4YTQ8); experiment: loss of DOC-induced GRE-beta-galactosidase reporter signal, dose response, Hsp90 inhibitor project, S. cerevisiae, luminescence (AID 2400); format: functional, cell-based;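 also: beta-galactosidase luminescence from glucocorticoid response element reporter as proxy for Hsp90 function; inhibitor potency where signal loss means Hsp90 inhibition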
Sequence of ATP-dependent molecular chaperone HSP82 (C4YTQ8 whole entry, the tested form may be a part): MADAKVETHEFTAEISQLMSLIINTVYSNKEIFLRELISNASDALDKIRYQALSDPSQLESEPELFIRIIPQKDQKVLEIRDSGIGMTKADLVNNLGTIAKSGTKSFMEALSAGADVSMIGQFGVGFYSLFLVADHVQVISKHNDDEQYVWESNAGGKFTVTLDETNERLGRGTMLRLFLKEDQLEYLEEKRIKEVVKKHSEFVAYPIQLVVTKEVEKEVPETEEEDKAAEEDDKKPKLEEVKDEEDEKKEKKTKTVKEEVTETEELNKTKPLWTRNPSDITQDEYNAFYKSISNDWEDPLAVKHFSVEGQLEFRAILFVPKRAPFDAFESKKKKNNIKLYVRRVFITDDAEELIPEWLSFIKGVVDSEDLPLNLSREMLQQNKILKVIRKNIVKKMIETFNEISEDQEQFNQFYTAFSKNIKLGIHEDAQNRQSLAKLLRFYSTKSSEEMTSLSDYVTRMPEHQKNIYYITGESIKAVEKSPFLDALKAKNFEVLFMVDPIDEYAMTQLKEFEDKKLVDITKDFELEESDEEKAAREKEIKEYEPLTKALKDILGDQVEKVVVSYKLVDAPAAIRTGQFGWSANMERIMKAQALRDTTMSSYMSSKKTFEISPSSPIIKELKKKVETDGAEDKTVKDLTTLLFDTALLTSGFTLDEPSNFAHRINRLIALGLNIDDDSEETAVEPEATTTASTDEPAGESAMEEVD

[9] = CEM21 lymphoblast cell cytotoxicity, dose response, cytotoxicity control for viral fusion inhibitor project, CellTiter-Glo luminescence, cherry-picked (AID 652042); format: functional, cell-based;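 also: potency for signal decrease meaning cytotoxicity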
[10] = ZM109 Env clade C HIV-1 fusion inhibitors, dose response, HeLa effector, CEM target cells, luciferase, cherry-pick (AID 652058); format: functional, cell-based
[11] = inhibitors of clade B AD8 Env fusion, dose response, cell-based, cherry-pick (AID 652062); format: functional;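 also: luciferase signal from cell-cell fusion driven by HIV-1 clade B AD8 Env; potency is for inhibitors of fusion seen as a drop in luminescence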
[12] = target: COUP transcription factor 2 (Homo sapiens, UniProt P24468); experiment: Luminescence-based cell-based high throughput dose response assay to identify inhibitors of COUP-TFII (NR2F2).; format: functional;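 also: HEK293 cells transiently cotransfected with COUP-TFII expression vector and reporter; luciferase reporter luminescence driven by COUP-TFII from the pX2-168 reporter plasmid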
Sequence of COUP transcription factor 2 (P24468 whole entry): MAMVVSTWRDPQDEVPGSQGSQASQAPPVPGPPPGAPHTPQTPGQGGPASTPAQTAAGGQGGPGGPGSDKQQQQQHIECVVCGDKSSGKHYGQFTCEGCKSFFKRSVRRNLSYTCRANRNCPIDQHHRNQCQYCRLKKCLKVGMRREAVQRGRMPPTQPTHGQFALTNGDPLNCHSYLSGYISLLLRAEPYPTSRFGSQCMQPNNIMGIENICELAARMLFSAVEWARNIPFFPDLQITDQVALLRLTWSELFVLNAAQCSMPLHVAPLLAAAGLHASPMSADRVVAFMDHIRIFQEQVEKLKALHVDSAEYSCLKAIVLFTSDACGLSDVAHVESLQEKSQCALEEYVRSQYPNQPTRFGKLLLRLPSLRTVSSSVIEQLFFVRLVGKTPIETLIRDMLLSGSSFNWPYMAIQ

[13] = Shn3 3'UTR reporter inhibitors, dose response, cell-based, Clone20 osteoblasts, firefly luciferase, cherry-picked (AID 624132); format: functional;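 also: firefly luciferase luminescence from reporter carrying the Shn3 3'UTR in osteoblasts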
[14] = HepG2 cell cytotoxicity, dose response, cytotoxicity control for Shn3 inhibitor project, CellTiter-Glo, cherry-picked (AID 624134); format: functional, cell-based
[15] = control 3'UTR Renilla luciferase suppression, dose response, counter-screen for Shn3 inhibitor project, cell-based, Clone20-Shn3RL, cherry-picked (AID 624133); format: functional
[16] = reduction of Shn3 3'UTR firefly luciferase signal, dose response, Schnurri-3 inhibitor project, cell-based, Clone20 osteoblasts, cherry-pick, set 2 (AID 720490); format: functional;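 also: actives lower the luminescence signal as inhibitors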
[17] = inhibitors of control Renilla luciferase reporter, dose response, counter-screen for Shn3 3'UTR targeting project, Clone20-Shn3RL cells, dual-Glo, cherry-pick, set 2 (AID 720724); format: functional, cell-based; conditions: Dual-Go Shn3RL
Kallikrein-7 = Kallikrein-7 (Homo sapiens, UniProt P49862); experiment: Fluorescence Intensity-based biochemical primary high throughput dose response assay to identify activators of kallikrein-7 (K7) zymogen.
Sequence of Kallikrein-7 (P49862 whole entry): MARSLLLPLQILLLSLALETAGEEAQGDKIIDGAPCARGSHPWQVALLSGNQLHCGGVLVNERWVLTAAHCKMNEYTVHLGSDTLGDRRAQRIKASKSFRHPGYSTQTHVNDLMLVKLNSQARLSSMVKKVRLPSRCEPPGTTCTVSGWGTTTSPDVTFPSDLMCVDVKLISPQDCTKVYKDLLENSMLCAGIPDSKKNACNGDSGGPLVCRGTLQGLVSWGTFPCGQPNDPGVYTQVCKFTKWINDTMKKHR

fMet-Leu-Phe receptor = fMet-Leu-Phe receptor (Homo sapiens, UniProt P21462); experiment: FPR ligands, dose response (AID 519); format: functional
Sequence of fMet-Leu-Phe receptor (P21462 whole entry): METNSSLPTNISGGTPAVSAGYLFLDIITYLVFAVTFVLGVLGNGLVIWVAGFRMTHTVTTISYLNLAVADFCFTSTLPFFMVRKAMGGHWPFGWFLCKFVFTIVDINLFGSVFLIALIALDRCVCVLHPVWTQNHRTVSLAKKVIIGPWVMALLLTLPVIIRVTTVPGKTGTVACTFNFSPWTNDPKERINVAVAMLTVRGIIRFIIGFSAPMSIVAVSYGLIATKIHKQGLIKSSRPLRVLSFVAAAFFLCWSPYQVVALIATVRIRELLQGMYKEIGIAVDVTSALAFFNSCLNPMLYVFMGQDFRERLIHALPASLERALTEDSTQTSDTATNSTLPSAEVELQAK

Structure (SMILES): c1ccc2c(c1)CCN(c1[nH]cnc3c4ccccc4nc1-3)C2
- EC50 [1]: > 150 µM (inactive)
- EC50 [2]: 1.01 µM (active)
- EC50 [3]: 17.7 µM (active)
- EC50 [4]: > 20 µM (not active)
- EC50 [5]: > 180 µM (inactive)
- EC50 [6]: 5.96 µM (active)
- IC50 [7]: 21 µM (inactive)
- EC50 [8]: > 150 µM (inactive)
- AC50 [9]: 64.8 µM (active)
- AC50 [10]: 2.62 µM (active)
- AC50 [11]: 4.09 µM (active)
- IC50 [12]: 4.69 µM (active)

Structure (SMILES): CCn1cc(CN(C)S(=O)(=O)c2ccc3ccccc3c2)c(C)n1
- AC50 [13]: 1.56 µM (active)
- AC50 [14]: 39.4 µM (active)
- AC50 [15]: 22.8 µM (active)
- AC50 [16]: 2.23 µM (active)
- AC50 [17]: 1.8 µM (active)

Structure (SMILES): COCCCn1c(C(=O)NCCN2CCOCC2)cc2c(=O)n3cccc(C)c3nc21
- EC50 (Kallikrein-7): > 69.5 µM (inactive)

Structure (SMILES): COc1ccccc1C1C(C(=O)c2ccccc2)=C(O)C(=O)N1CC(C)C (stereo not given)
- Ki (fMet-Leu-Phe receptor): 5.5 µM (active)

Structure (SMILES): COCCNC(=O)Cc1c(C)c2cc3c(cc2oc1=O)OC(C)(C)CC3
- EC50 (Kallikrein-7): > 69.6 µM (inactive)
